Measurements as given in patent US9363996B2, “Compositions and method for blocking ethylene response in field crops using 3-(cy-clopropyl-l-enyl)-propanoic salt” (Yissum Research Development Company of the Hebrew …, priority 2009, dated 2016).

What was measured:
[1] = tested on: young cotton leaf explants; test: Ethylene-induced petiole abscission of young cotton leaf explants; type: in vivo, cotton (Gossyium hirsutum barbadense L.)
Description: (1) Abscission—This is a very sensitive model system for studying the effects of plant hormones. Ethylene induces the process of abscission, while auxin delays it. In the laboratory the experimental system is based on plant organ explants, which include the abscission zone. Abscission is induced by exposure to ethylene and at the termination of the experiment the number of abscised organs, usually either leaf blades or petioles are counted and the fraction of abscission is calculated. In the case of fruit, the decrease in fruit retention force is analyzed. In cotton, when WS-CPD (the ethylene-action antagonist herein disclosed) is tested, the whole plants or explants are pretreated by spraying with the antagonist, dissolved in a phosphate buffer solution (10-20 mM, pH 7.0) including 0.1% commercially available Kinetic™ as surfactant, and left to incubate for a predetermined time, usually between 6 and 24 h. The plants or explants are then further exposed for 24 h to ethylene gas (5 to 20 μL L^−1). The plants or explants are then ventilated and incubated for the required time under controlled conditions. At the end of the experiment the percentage of abscission is determined. (2) Chlorophyll degradation—This is a standard model for studying senescence. Plant material (whole plants, excised leaves or leaf discs) are pretreated. In cotton, tobacco and wheat, when WS-CPD is tested, the whole plants or explants are pretreated by spraying with the antagonist, dissolved in phosphate buffer solution (10-20 mM, pH 7.0) including 0.1% commercially available Kinetic™ surfactant, and left to incubate for a predetermined time, usually between 6 and 241. […] At the end of the experiment a dimethylsulfoxide (DMSO) extract of the plant tissue is prepared, and the chlorophyll content of the extract is determined by spectrophotometric analysis. […] The extent of ethylene-induced epinasty of leaves is determined by measuring the change of the angle between the petiole and the stem shoot or blade. […]

[2] = tested on: Winter wheat; test: Field experiment in wheat: seed yield and seed weight; type: in vivo, Winter wheat (Ttriticum aestivum, var. Galil); conditions: for yield increase over the control, hand-separated: g/100 spikes; for seed yield increase compared to the untreated control, mechanically thresh separated: g/plot
Text: Plant material and experimental design—Winter wheat (Ttriticum aestivum, var. Galil) was sown in December 2008 in a medium-heavy soil in the farm of the Volcani Center, Agricultural Research Organization, Bet-Dagan, Israel. Winter rainfall between October and March was 515 mm. The crop was raised without irrigation. The plants were sprayed twice with insecticide in November with ‘Tunex’ (one L/acre) and in December with ‘Oror Turbo’ (200 g/acre). The experiment started in mid-March, 2009. Six blocks were randomly selected, and each block was further randomly divided into four treatment plots of two square meters each (FIG. 67A—right and left). Two-meter-wide strips of untreated plants served as border lines between the blocks (FIG. 67A—center). The following treatments were applied: 1. control; 2. spraying WS-CPD at the ‘Milky’ stage I (30.3.09); 3. spraying WS-CPD at the ‘Milky’ stage II (17.4.09); 4. two successive WS-CPD sprays as above (30.3.09 and 17.4.09).
Treatments—The treatment solution of WS-CPD contained 120 μg mL^−1 of WS-CPD in 10 mM K-phosphate buffer (pH 7.6) and 0.1% of ‘Kinetic’ surfactant. Spraying (about 0.8 L/two square meters) was applied with a portable sprayer (ACL 7-L, Great Brittan). The controls were sprayed with the treatment solution without WS-CPD. The spraying was aimed to cover the upper part of the plants, from the second leaf below the ‘Flag leaf’ and up, covering the whole spike.
Determination of seed development—In order to follow the dynamics of seed development from ‘Milky’ stage I to seed maturity, groups of 200 spikes were sampled from the border strips. Samples were taken on 30.3.09 (‘Milky’ stage I), 17.4.09 (‘Milky’ stage II), and 19.5.09 (seed maturity). The spikes were brought to the laboratory and dried in an oven (60° C.) until complete dryness. After drying, the seeds were separated from each spike, counted, and their weight was recorded to determine the average seed weight for each spike. The number of spikes with the same average seed weight of each treatment was expressed as percent of total spike number.
Harvesting—At the termination of the experiment (19.5.09), when the seeds reached full maturity, the spikes from all six blocks were harvested, counted, and placed on tables in the greenhouse for 12 days to reach complete dryness (FIG. 67B).
Hand seed separation—One hundred dried spikes were randomly sampled of each plot (n=6) after harvesting. The seeds of each spike were separated (FIGS. 67C and D) and counted and their weight was determined. The seed weight of each spike was divided by the number of seeds per spike to determine the average seed weight of each spike. The number of spikes of each treatment with the same average seed weight was expressed as percent of total spike number.
Mechanical thresh seed separation—The remaining dry spikes of each experimental plot were counted and mechanically thresh separated (Kurt Pelz Co., Germany) from their glumes and chafes, and their dry weight was recorded (g/plot). For comparison of the yield weight of the controls between mechanical thresh and hand separation, 200 seeds from each method were randomly sampled.
Effect of WS-CPD on Yield—This effect of WS-CPD was studied by two ways: a) calculating the yield of each experimental plot (g/plot) and; b) calculating the yield dry weight of 100 spikes randomly selected in each experimental plot (g/100 spikes).

[3] = WS-CPD 120 μg mL^−1 spray at 'Milky' stage I
[4] = WS-CPD 120 μg mL^−1 spray at 'Milky' stage II

SMILES: O=C([O-])CCC1=CC1.[Na+] [WS-CPD, 3-cyclopropyl-1-enyl-propanoic sodium salt]
- abscission percentage of explants ([1]; WS-CPD 300 μg mL^−1): lower than the air control treatment
- decrease of abscission ([1]; WS-CPD 10 to 30 μg mL^−1, throughout the experiment, ethylene-treated explants): about 20%
- yield increase over the control, hand-separated [2, 3]: about 15±2.6%
- seed yield increase compared to the untreated control, mechanically thresh separated [2, 3]: about 5%
- yield increase over the control, hand-separated [2, 4]: about 8%
- seed yield increase compared to the untreated control, mechanically thresh separated [2, 4]: ~8%
- increase of seed weight ([2]; one spray at 'Milky' stage I, hand-separated, mg/seed): about 15%
- distribution of seed weight at maturity versus control spikes ([2]; sprayed at 'Milky' stage I, II or both): always significantly heavier
- yield, hand-separated ([2]; spraying twice at 'Milky' stages I+II versus one spray at stage I): no advantage
- seed yield, mechanically thresh separated ([2]; spraying twice at 'Milky' stages I+II versus spraying once): no advantage
